Data from patent publication US6699463B2, “Photostable cationic organic sunscreen compounds with antioxidant properties and compositions obtained therefrom” (EM Industries, priority 2002, dated 2004).
Converted amounts (≈) assume the structure as drawn.

Assays:
[1] = DPPH test method (percent reducing activity, antioxidant activity); type: biochemical; settings: for IC 50%: DPPH reducing activity; for Reductive activity at 30 μg/ml: DPPH, absorbance at 517 nm after 20 minutes
Method: A DPPH concentrate (2.5×) of 25 mg of 1,1-Diphenyl-2-Picyrl-Hydrazyl ACS#1898-66-4 (Sigma #D-9132, lot 99H3601) dissolved in 250 mL ethanol (USP), is prepared fresh on the measurement date. A DPPH working solution is then prepared by diluting 100 mL of this concentrate to a final volume of 250 mL (100 μM/mL). A blank 13×100 mm borosilicate glass screw top tube of ethanol (USP) is used to zero the spectrometer (Milton Roy, Spectronic 20+) at 517 nm and a control tube of DPPH working solution is measured under identical conditions, and taken as 0% activity. Aliquots of the 0.25% & 0.5% (RT & 45° C.) test solution are added to tubes followed by the rapid addition of 4 mL DPPH working solution then rapidly capped and mixed. After 20 minutes, the absorbance of each sample is read at 517 nm.
The percent reducing activity (%RA) is calculated using the following equation: [formula]
Where A(0) is the absorbance value of the DPPH working solution at 517 nm zeroed against an ethanol blank and A(20) is the absorbance at 517 nm, 20 minutes after combining the antioxidant with the DPPH working solution.
The concentration of antioxidant (mg/ml) in the final assay mixture is calculated based on the dilution of respective aliquots of each compound in the final assay volume and %RA tabulated and plotted as percent activity at each concentration in the dilution series.

[2] = Comparative photostability of thin films under UV A and UV B irradiation; type: physicochemical; settings: thin film, UV A (2 MED/h) and UV B (1 MED/h), 8 h, FIGS. 1 and 2
Method: The photostability of compounds of the present invention as well as existing commercial cationic sunscreens is tested according to the procedure described below:
Photostability: Comparative Photostability of Example 3, Incroquat® 283 and Escalol® HP610
Three products [Example 3 (1%), Incroquat 283 (1%) and HP610 (0.1%)] were tested for their photostability by dissolving separately in water or ethanol-water solution containing 0.1% Poly(vinylpyrrolidone-vinyl acetate) copolymer (PVP-VA S630 from ISP). Air drying on a glass plate for one hour gave a thin film, which were irradiated under UV A (2 MED/h) and UV B (1 MED/h) light separately over an 8 h period in a Q-UV Accelerated Weathering Tester. Photodegradation was calculated from the decrease in the maximum absorption of the respective products. The results are illustrated in FIGS. 1 and 2.

[3] = Chelating property: free coordination sites in Fe3+-antioxidant complex, UV spectrophotometric azide method; type: physicochemical
Method: (§1) Iron-catalyzed formation of a hydroxyl radical from a superoxide anion radical and hydrogen peroxide requires the availability of at least one iron coordination site that is either empty or occupied by a readily dissociable ligand, such as water. […] Martell et al, 1957). The results are recorded in Tables 1 and 2. [table]

[4] = Chelating property: free coordination sites in Cu2+-antioxidant complex, UV spectrophotometric azide method; type: physicochemical
Method: as §1

[5] = Solubility in water / aqueous-ethanolic solution; type: physicochemical; settings: for Solubility in water: water / aqueous solution
[6] = UV absorption (λmax, εmax); type: physicochemical; settings: for λmax: Example 3 in EtOH:water-70%:30%; for εmax: at λmax
Method: The mass was degassed for one hour at 90-95 deg. C. under vacuum. The yield obtained is about 85%. […] A 50% solution in water was prepared for ease of handling.
This material was prepared by following the procedure described in Example 3, except syringaldehyde was replaced with vanillin as a starting material. The product has a λmax at 334 nm (ε max 18050 cm^−1 mol^−1). A 50% solution in water was prepared for ease of handling.

Compound | IC 50% [1] | Reductive activity at 30 μg/ml [1] | Photostability relative to commercial cationic sunscreens [2] | Iron chelation / water coordination of the complex [3] | Copper chelation / water coordination of the complex [4] | Solubility in water [5] | λmax [6] | εmax [6] | maximal concentration in aqueous-ethanolic solution ([5]; aqueous-ethanolic solution (30:70%))
CCCCCCCCCCCC[N+](C)(C)CCCNC(=O)C(C#N)=Cc1cc(OC)c(O)c(OC)c1.CS(=O)(=O)[O-] [Example 2, N-(3-Dimethyl-3-dodecylaminopropyl)-alpha-cyano-3,5-dimethoxy-4-hydroxy Cinnamide Methane Sulphonate] | 129 µg/mL | 28% |  |  |  |  |  |  | 
Bis-N-[3(N,N-dimethylamino)propyl]-3,5-dimethoxy-4-hydroxybenzylidene Malonamide Bis Ethylsulfate [Example 3] | 118 µg/mL | 22% | much higher photostability | absence of any water coordination | absence of any water coordination | highly soluble in water | 323 nm | 10,500 cm^−1 mol^−1 | 
Bis-N-[3(N,N-dimethylamino)propyl]-3-methoxy-4-hydroxybenzylidene Malonamide Bis Ethylsulfate [Example 4] | 188 µg/mL | 8% |  |  |  |  | 334 nm | 18050 cm⁻¹ mol⁻¹ | 
CCCCCCCCCCCC[N+](C)(C)CCCNC(=O)c1ccc(N(C)C)cc1.Cc1ccc(S(=O)(=O)[O-])cc1 [Escalol® HP 610] |  |  |  | do not have iron-or copper-chelating properties | do not have iron-or copper-chelating properties | very poor solubility |  |  | 0.25%
COc1cc(/C=C(/C(C)=O)C(=O)NCCCN(C)C)cc(OC)c1O [Example 1, N-(3-Dimethylaminopropyl)-alpha-acyl-3,5-dimethoxy-4-hydroxy Cinnamide] | 79 µg/mL (≈ 225 µM) | 23% |  |  |  |  |  |  | 
